# How the values were obtained:
# [1] = test system: phosphorylated NF-κB; experiment: pNF-κB immunoblot in AD patient-derived astrocytes; format: cell-based, human; conditions: 5 h treatment
# [2] = biological target: CK2α1 (Homo sapiens, UniProt P68400); experiment: Thermal shift assay followed by Western blotting; format: binding; design: endogenous in cells; conditions: astrocyte lysates
# Experimental: Thermal shift assay and TPP. Experiments were performed as previously described (Franken et al., Nature Protocols 2015, 10:1567-1593; Reinhard et al., Nature Methods 2015, 12:1129-1131). 45 million H1-derived astrocytes were activated with 10 ng/mL IL1b for 6 h, dissociated with 1:1 Accutase/papain (3 min rt), and centrifuged at 1,800 rpm for 2 min at 4 C. The pellet was washed twice with 10 mL cold DPBS, lysed in 2.25 mL DPBS and 0.4% v/v NP-40 by freeze-thawing 3×, and clarified by centrifugation (20,000 g, 30 min, 4° C.). Protein concentration was determined by BCA assay (Bio-Rad), and lysates were diluted to 2 mg/mL. […] Reactions were incubated at rt for 30 min, after which each treated extract was divided into 10 aliquots of 95 μL in PCR strip tubes and stored on ice. Each group of treated samples was heated for 3 min at predesignated temperatures (3×10 temperatures), then kept for 3 min at rt before ultracentrifugation (20 min at 4° C., 100,000 g) in 200 μL polycarbonate tubes (Beckman Coulter #343775). Designated temperatures were 37, 41.1, 43.6, 46.9, 50, 53.7, 56, 59.5, 63, and 67° C. A small aliquot (5 μL) of supernatant was saved for Western blotting, and the rest was snap frozen at −80 C and submitted for LC-MS/MS.
# [3] = test system: IκBα; experiment: Immunoblot of IκBα and pIκB S32 in inflamed astrocytes; format: cell-based, human; conditions: 6 hours
# Experimental: Western blotting. For drug treatment assays, cells were treated with vehicle (DMSO) or 20 μM compound and stimulated with IL1B 10 ng/mL for 1 h, 6 h, or 24 h. Cells were dissociated with 1:1 Accutase:papain for 3 min at rt, pelleted for 5 min at 800 g, and washed twice with cold DPBS. Pellets were lysed with RIPA buffer (Sigma R^0278) supplemented with Halt protease inhibitor cocktail (Thermo Fisher 78445) and clarified by centrifugation (16,000 g, 10 min, 4° C.). Protein concentration was determined by BCA assay (Thermo Fisher). Proteins were denatured in 1×LDS Buffer and 2.5% beta-mercaptoethanol (Sigma) for 10 min at 70° C., separated on Bolt 4-12% Bis-Tris Plus polyacrylamide gels (Thermo Fisher), transferred to PVDF membranes using the iBlot 2 Dry Blotting System, and blocked with 0.1% casein-PBS (Bio-Rad) for 1 h at room temperature. The blots were incubated with primary antibodies overnight at 4° C. in PBS containing 0.1% casein and 0.2% Tween-20. […] The blots were imaged using the Odyssey CLx imaging system and blots were analyzed on the ImageStudio software (LI-COR).
# [4] = test system: IL-6 and TNFAIP2; experiment: IL-6 and TNFAIP2 induction in AD patient-derived astrocytes; format: cell-based, human; conditions: IL1-β
# [5] = test system: tau phosphorylation; experiment: Tau phosphorylation in induced neurons (iNs); format: cell-based; conditions: FIG. 14
# [6] = test system: IL-6 secretion; experiment: IL-6 secretion assay in astrocytes (Promega Lumit IL-6 kit); format: cell-based, human; conditions: astrocytes and microglia; FIG. 2D, FIG. 1C
# How it was run: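 Human astrocytes (HCAs), 20,000 per well, cultured 2-3 days, then stimulated with 10 ng/mL IL1B alongside compound dilution series. IL-6 secreted over 5 h quantified by Lumit IL-6 luminescent immunoassay.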
# CK2α1, sequence (P68400 whole entry): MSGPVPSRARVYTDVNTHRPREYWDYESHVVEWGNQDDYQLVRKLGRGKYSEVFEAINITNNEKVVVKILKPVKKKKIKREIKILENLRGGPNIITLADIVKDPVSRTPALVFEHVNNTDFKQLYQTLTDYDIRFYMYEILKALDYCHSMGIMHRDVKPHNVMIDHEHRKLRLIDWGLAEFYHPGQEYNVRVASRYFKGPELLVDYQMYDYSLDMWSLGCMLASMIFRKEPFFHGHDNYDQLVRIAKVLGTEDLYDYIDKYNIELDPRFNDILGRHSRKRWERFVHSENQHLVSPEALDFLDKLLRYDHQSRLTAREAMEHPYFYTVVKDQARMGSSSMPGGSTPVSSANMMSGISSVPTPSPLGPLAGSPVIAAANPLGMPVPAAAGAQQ
compound,measurement,setting,value
"COc1cc(-c2cc(=O)c3c(O)cc(O)cc3o2)ccc1O [CHR, Chrysoeriol]",Elevated phosphorylated NF-κB in AD astrocytes,[1],reduced
same,Thermal stabilization of CK2α1,[2],dose-dependently stabilized
same,IκBα levels,[3],dose-dependently boosted
same,phosphorylated IκB S32,[3],remained unchanged
same,Hyperinflammatory phenotype (IL-6 and TNFAIP2 induction),[4],mitigated
same,Tau phosphorylation,[5],reduces
same,"Anti-inflammatory effects, dose dependence",[6],dose-dependent

# — patent US20260199350A1, “FLAVONES, QUINOLINONES, QUINAZOLINONES, AND AURONES, AND USES IN CK2-MEDIATED DISEASES” (Salk Institute for Biological Studies, priority 2022, published 2026)
